Ki data for 31 compounds are collected here from US20240150293A1, “SPIROCYCLOHEXANE DERIVATIVES, PHARMACEUTICAL COMPOSITIONS CONTAINING THEM AND THEIR USES AS ANTI-APOPTOTIC INHIBITORS” (LES LABORATOIRES SERVIER, priority 2021, published 2024).

This assay has as its target Mcl-1 protein (UniProtKB Q07820) (Homo sapiens (Human), UniProt Q07820). The experiment in a line: Inhibition of Mcl-1 by the fluorescence polarisation assay (Example A, Method A). In kind it is binding. To be noted: fluorescence polarization assay. In outline:
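Protein (5 nM) and fluorescein-tagged peptide tracer (1 nM) incubated with 11-point compound series for 2 h at room temperature in HEPES/NaCl/Tween 20 buffer, pH 7.4, 5% DMSO. Displacement read as decrease in polarisation; IC50 fitted by 4-parameter logistic, converted to Ki (cKi or eKi).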

Chain of Mcl-1 protein (Q07820 whole entry): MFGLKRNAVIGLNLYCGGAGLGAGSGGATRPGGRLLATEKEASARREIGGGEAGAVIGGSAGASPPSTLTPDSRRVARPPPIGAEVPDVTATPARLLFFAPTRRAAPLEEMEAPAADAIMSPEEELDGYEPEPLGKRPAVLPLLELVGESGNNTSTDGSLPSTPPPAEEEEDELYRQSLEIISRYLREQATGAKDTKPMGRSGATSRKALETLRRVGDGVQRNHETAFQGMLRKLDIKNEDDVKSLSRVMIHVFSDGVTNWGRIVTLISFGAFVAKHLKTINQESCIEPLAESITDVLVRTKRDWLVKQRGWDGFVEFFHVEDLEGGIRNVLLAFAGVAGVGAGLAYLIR

What is called Ki is the equilibrium dissociation constant of an inhibitor or competing ligand from its target. Regarding `CC1(C)CCC=C1C1=Cc2ccccc2[C@]12CC[C@@](Nc1cccc(Cl)c1)(C(=O)O)CC2` [Example 278, (1s,4s)-4-(3-chloroanilino)-2′-(5,5-dimethylcyclopent-1-en-1-yl)spiro[cyclohexane-1,1′-indene]-4-carboxylic acid], the inhibitory constant (Ki) amounted to 11800 nM.

Consider `COc1ccc(C2Cc3ccccc3C23CCC(Nc2cccc(Cl)c2)(C(=O)O)CC3)cc1Cl` (stereo not shown) [Example 279, (1r,4r)-4-(3-chloroanilino)-2′-(3-chloro-4-methoxyphenyl)-2′,3′-dihydrospiro[cyclohexane-1,1′-indene]-4-carboxylic acid], for which the Ki is 383 nM. With `O=C(O)[C@]1(Nc2cccc(Cl)c2)CC[C@@]2(CC1)c1ccccc1C[C@H]2c1ccc2occc2c1` [Example 281, (1r,2′S,4S)-2′-(1-benzofuran-5-yl)-4-(3-chloroanilino)-2′,3′-dihydrospiro[cyclohexane-1,1′-indene]-4-carboxylic acid], the Ki turned out to be 473 nM. The same measure for `O=C(O)[C@]1(Nc2cccc(Cl)c2)CC[C@@]2(CC1)c1ccccc1C[C@@H]2c1ccc2occc2c1` [Example 282, (1r,2′R,4R)-2′-(1-benzofuran-5-yl)-4-(3-chloroanilino)-2′,3′-dihydrospiro[cyclohexane-1,1′-indene]-4-carboxylic acid]: 5130 nM. Take `Cc1ccc(C2=Cc3ccccc3[C@]23CC[C@@](Nc2cccc(Cl)c2)(C(=O)O)CC3)cc1` [Example 297, (1s,4s)-4-(3-chloroanilino)-2′-(4-methylphenyl)spiro[cyclohexane-1,1′-indene]-4-carboxylic acid]: the Ki is 2370 nM. On to `O=C(O)[C@]1(Nc2cccc(Cl)c2)CC[C@]2(CC1)C(c1ccc(Cl)cc1)=Cc1ccccc12` [Example 298, (1s,4s)-4-(3-chloroanilino)-2′-(4-chlorophenyl)spiro[cyclohexane-1,1′-indene]-4-carboxylic acid], for which the Ki was found to be 1110 nM. Under `COc1cccc(C2=Cc3ccccc3[C@]23CC[C@@](Nc2cccc(Cl)c2)(C(=O)O)CC3)c1C` [Example 299, (1s,4s)-4-(3-chloroanilino)-2′-(3-methoxy-2-methylphenyl)spiro[cyclohexane-1,1′-indene]-4-carboxylic acid] stands 410 nM; under `O=C(O)[C@]1(Nc2cccc(Cl)c2)CC[C@]2(CC1)C(c1cccc(Oc3ccccc3)c1)=Cc1ccccc12` [Example 300, (1s,4s)-4-(3-chloroanilino)-2′-(3-phenoxyphenyl)spiro[cyclohexane-1,1′-indene]-4-carboxylic acid], 174 nM. Under `O=C(O)[C@]1(Nc2cccc(Cl)c2)CC[C@]2(CC1)C(c1cccc(Cc3ccccc3)c1)=Cc1ccccc12` [Example 301, (1s,4s)-2′-(3-benzylphenyl)-4-(3-chloroanilino)spiro[cyclohexane-1,1′-indene]-4-carboxylic acid] stands 491 nM. Take `O=C(O)[C@]1(Nc2cccc(Cl)c2)CC[C@]2(CC1)C(c1cccc(OCc3ccccc3)c1)=Cc1ccccc12` [Example 302, (1s,4s)-2′-[3-(benzyloxy)phenyl]-4-(3-chloroanilino)spiro[cyclohexane-1,1′-indene]-4-carboxylic acid]: the Ki was determined as 1510 nM. As to `O=C(O)[C@]1(Nc2cccc(Cl)c2)CC[C@]2(CC1)C(c1cc3ccccc3o1)=Cc1ccccc12` [Example 303, (1s,4s)-2′-(1-benzofuran-2-yl)-4-(3-chloroanilino)spiro[cyclohexane-1,1′-indene]-4-carboxylic acid], the Ki was found to be 2260 nM. For the compound `O=C(O)[C@]1(Nc2cccc(Cl)c2)CC[C@]2(CC1)C(c1cccc(O)c1)=Cc1ccccc12` [Example 304, (1s,4s)-4-(3-chloroanilino)-2′-(3-hydroxyphenyl)spiro[cyclohexane-1,1′-indene]-4-carboxylic acid], the Ki came to 1740 nM. Consider `O=C(O)[C@]1(Nc2cccc(Cl)c2)CC[C@]2(CC1)C(c1ccccc1)=Cc1ccccc12` [Example 305, (1s,4s)-4-(3-chloroanilino)-2′-phenylspiro[cyclohexane-1,1′-indene]-4-carboxylic acid], for which the inhibition constant (Ki) was found to be 663 nM.

As to `COc1cc(OC)cc(C2=Cc3ccccc3[C@]23CC[C@@](Nc2cccc(Cl)c2)(C(=O)O)CC3)c1` [Example 308, (1s,4s)-4-(3-chloroanilino)-2′-(3,5-dimethoxyphenyl)spiro[cyclohexane-1,1′-indene]-4-carboxylic acid], the Ki came out at 2930 nM. For `O=C(O)[C@]1(Nc2cccc(Cl)c2)CC[C@]2(CC1)C(c1ccc(OCc3ccccc3)cc1)=Cc1ccccc12` [Example 309, (1s,4s)-2′-[4-(benzyloxy)phenyl]-4-(3-chloroanilino)spiro[cyclohexane-1,1′-indene]-4-carboxylic acid], the inhibitory constant (Ki) stood at 732 nM. Turning to `COc1cc(C)cc(C2=Cc3ccccc3[C@]23CC[C@@](Nc2cccc(Cl)c2)(C(=O)O)CC3)c1` [Example 310, (1s,4s)-4-(3-chloroanilino)-2′-(3-methoxy-5-methylphenyl)spiro[cyclohexane-1,1′-indene]-4-carboxylic acid], the Ki was 721 nM.

As to `O=C(O)[C@]1(Nc2cccc(Cl)c2)CC[C@]2(CC1)C(c1ccccc1Cl)=Cc1ccccc12` [Example 311, (1s,4s)-4-(3-chloroanilino)-2′-(2-chlorophenyl)spiro[cyclohexane-1,1′-indene]-4-carboxylic acid], the Ki is 559 nM. The same measure for `O=C(O)[C@]1(Nc2cccc(Cl)c2)CC[C@]2(CC1)C(c1cccc(C(F)(F)F)c1)=Cc1ccccc12` [Example 312, (1s,4s)-4-(3-chloroanilino)-2′-[3-(trifluoromethyl)phenyl]spiro[cyclohexane-1,1′-indene]-4-carboxylic acid]: 839 nM; for `CCOc1cccc(C2=Cc3ccccc3[C@]23CC[C@@](Nc2cccc(Cl)c2)(C(=O)O)CC3)c1` [Example 313, (1s,4s)-4-(3-chloroanilino)-2′-(3-ethoxyphenyl)spiro[cyclohexane-1,1′-indene]-4-carboxylic acid]: 385 nM. In the case of `O=C(O)[C@]1(Nc2cccc(Cl)c2)CC[C@]2(CC1)C(c1cccc(OC(F)(F)F)c1)=Cc1ccccc12` [Example 314, (1s,4s)-4-(3-chloroanilino)-2′-[3-(trifluoromethoxy)phenyl]spiro[cyclohexane-1,1′-indene]-4-carboxylic acid], the Ki was 528 nM. Regarding `COCCOc1cccc(C2=Cc3ccccc3[C@]23CC[C@@](Nc2cccc(Cl)c2)(C(=O)O)CC3)c1` [Example 315, (1s,4s)-4-(3-chloroanilino)-2′-[3-(2-methoxyethoxy)phenyl]spiro[cyclohexane-1,1′-indene]-4-carboxylic acid], the Ki came to 546 nM. As to `Cc1csc(C2=Cc3ccccc3[C@]23CC[C@@](Nc2cccc(Cl)c2)(C(=O)O)CC3)c1` [Example 316, (1s,4s)-4-(3-chloroanilino)-2′-(4-methylthiophen-2-yl)spiro[cyclohexane-1,1′-indene]-4-carboxylic acid], the Ki came to 1870 nM. Under `O=C(O)[C@]1(Nc2cccc(Cl)c2)CC[C@]2(CC1)C(c1ccc(-c3ccccc3)o1)=Cc1ccccc12` [Example 317, (1s,4s)-4-(3-chloroanilino)-2′-(5-phenylfuran-2-yl)spiro[cyclohexane-1,1′-indene]-4-carboxylic acid] stands 942 nM.

Regarding `Cc1cc(C2=Cc3ccccc3[C@]23CC[C@@](Nc2cccc(Cl)c2)(C(=O)O)CC3)cs1` [Example 318, (1s,4s)-4-(3-chloroanilino)-2′-(5-methylthiophen-3-yl)spiro[cyclohexane-1,1′-indene]-4-carboxylic acid], the Ki was found to be 1910 nM. Consider `O=C(O)[C@]1(Nc2cccc(Cl)c2)CC[C@@]2(CC1)c1ccccc1C[C@@H]2c1cccc(Oc2ccccc2)c1` [Example 324, (1r,2′R,4R)-4-(3-chloroanilino)-2′-(3-phenoxyphenyl)-2′,3′-dihydrospiro[cyclohexane-1,1′-indene]-4-carboxylic acid], for which the Ki is 8450 nM.

Turning to `O=C(O)[C@]1(Nc2cccc(Cl)c2)CC[C@@]2(CC1)c1ccccc1C[C@H]2c1cccc(Cc2ccccc2)c1` [Example 325, (1r,2′S,4S)-2′-(3-benzylphenyl)-4-(3-chloroanilino)-2′,3′-dihydrospiro[cyclohexane-1,1′-indene]-4-carboxylic acid], the Ki amounted to 289 nM. For the compound `O=C(O)[C@]1(Nc2cccc(Cl)c2)CC[C@@]2(CC1)c1ccccc1C[C@@H]2c1cccc(Cc2ccccc2)c1` [Example 326, (1r,2′R,4R)-2′-(3-benzylphenyl)-4-(3-chloroanilino)-2′,3′-dihydrospiro[cyclohexane-1,1′-indene]-4-carboxylic acid], the Ki came out at 19300 nM. Consider `O=C(O)[C@]1(Nc2cccc(Cl)c2)CC[C@]2(CC1)C(c1ccoc1)=Cc1ccccc12` [Example 329, (1s,4s)-4-(3-chloroanilino)-2′-(furan-3-yl)spiro[cyclohexane-1,1′-indene]-4-carboxylic acid], for which the Ki was 1650 nM. For `O=C(O)[C@]1(Nc2cccc(Cl)c2)CC[C@]2(CC1)C(c1ccsc1)=Cc1ccccc12` [Example 330, (1s,4s)-4-(3-chloroanilino)-2′-(thiophen-3-yl)spiro[cyclohexane-1,1′-indene]-4-carboxylic acid], the Ki is 2120 nM. As to `COc1cc(Cl)cc(C2=Cc3ccccc3[C@]23CC[C@@](Nc2cccc(Cl)c2)(C(=O)O)CC3)c1` [Example 331, (1s,4s)-4-(3-chloroanilino)-2′-(3-chloro-5-methoxyphenyl)spiro[cyclohexane-1,1′-indene]-4-carboxylic acid], the Ki amounted to 2180 nM. The same measure for `O=C(O)[C@]1(Nc2cccc(Cl)c2)CC[C@@]2(CC1)c1ccccc1C[C@@H]2c1cccc(OCc2ccccc2)c1` [Example 333, (1r,2′R,4R)-2′-[3-(benzyloxy)phenyl]-4-(3-chloroanilino)-2′,3′-dihydrospiro[cyclohexane-1,1′-indene]-4-carboxylic acid]: 13200 nM.
